Patent US12344597B2, “Alkoxy-substituted pyridinyl derivatives as LPA1 receptor antagonists and their use in the treatment of fibrosis” (IDORSIA PHARMACEUTICALS LTD, priority 2018, dated 2025)

target: human LPA1 receptor (Homo sapiens (Human), UniProt Q92633); test: Beta-arrestin recruitment assay to determine IC50 values for human LPAR1; format: cell-based; conditions: antagonist mode, Tango EDG2-bla U2OS cells, LPA 18:1 500 nM final
In short: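 Antagonist IC50 = concentration giving 50% inhibition of maximal LPA response. Read-out is beta-lactamase reporter activity after arrestin-protease recruitment in U2OS cells bearing LPA1-TEV-Gal4-VP16 construct; cells pre-incubated 20 h, 37 °C, 5% CO2.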

Sequence of human LPA1 receptor (Q92633 whole entry, the tested form may be a part): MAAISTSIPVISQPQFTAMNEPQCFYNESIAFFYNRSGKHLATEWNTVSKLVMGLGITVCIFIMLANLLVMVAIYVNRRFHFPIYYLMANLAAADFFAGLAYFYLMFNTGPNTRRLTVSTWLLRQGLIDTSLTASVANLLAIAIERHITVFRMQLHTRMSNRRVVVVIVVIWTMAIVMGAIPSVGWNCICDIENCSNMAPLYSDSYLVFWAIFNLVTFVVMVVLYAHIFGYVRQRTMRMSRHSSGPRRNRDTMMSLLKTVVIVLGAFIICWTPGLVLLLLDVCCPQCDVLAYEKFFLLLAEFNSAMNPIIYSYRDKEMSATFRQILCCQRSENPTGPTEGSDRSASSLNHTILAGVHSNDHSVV

Molecule	IC50
Cc1ccc(NC(=O)C2(c3ccccc3C(C)C)CN(C(=O)[C@@H]3C[C@@H]3C(=O)O)C2)c(OC(F)F)n1 [Ex 12-95, (1S,2R)-2-(3-((2-(difluoromethoxy)-6-methylpyridin-3-yl)carbamoyl)-3-(2-isopropylphenyl)azetidine-1-carbonyl)cyclopropane-1-carboxylic acid]	14 nM
Cc1ccc(NC(=O)C2(c3nccnc3C(C)C)CNC2)c(OC(F)F)n1 [Ex 68, N-(2-(difluoromethoxy)-6-methylpyridin-3-yl)-3-(3-isopropylpyrazin-2-yl)azetidine-3-carboxamide]	7620 nM
Cc1ccc(NC(=O)C2(c3ccccc3C(C)C)CN(CC(C)N)C2)c(OC(F)F)n1 (centres unmarked) [Ex 11-11, 1-(2-aminopropyl)-N-(2-(difluoromethoxy)-6-methylpyridin-3-yl)-3-(2-isopropylphenyl)azetidine-3-carboxamide]	5 nM
Cc1ccc(NC(=O)C2(c3ccccc3C(C)C)CN(C(=O)CCOCCOCC(=O)O)C2)c(OC(F)F)n1 [Ex 12-121, 2-(2-(3-(3-((2-(difluoromethoxy)-6-methylpyridin-3-yl)carbamoyl)-3-(2-isopropylphenyl)azetidin-1-yl)-3-oxopropoxy)ethoxy)acetic acid]	310 nM
Cc1ccc(NC(=O)C2(c3ccccc3C(C)C)CN(C(=O)C(F)(F)CC(=O)O)C2)c(OC(F)F)n1 [Ex 12-115, 4-(3-((2-(difluoromethoxy)-6-methylpyridin-3-yl)carbamoyl)-3-(2-isopropylphenyl)azetidin-1-yl)-3,3-difluoro-4-oxobutanoic acid]	7 nM
Cc1ccc(NC(=O)C2(c3ncccc3C(C)C)CN(c3nc(C)ncc3F)C2)c(OC(F)F)n1 [Ex 64, N-(2-(difluoromethoxy)-6-methylpyridin-3-yl)-1-(5-fluoro-2-methylpyrimidin-4-yl)-3-(3-isopropylpyridin-2-yl)azetidine-3-carboxamide]	15 nM
Methyl 4-(3-((5-bromo-3-(difluoromethoxy)pyridin-2-yl)carbamoyl)-3-(2-isopropylphenyl)azetidin-1-yl)-2,2-dimethyl-4-oxobutanoate [Ex 79-2]	11 nM
CCOC(=O)c1cc(CN2CC(C(=O)Nc3ccc(C)nc3OC(F)F)(c3ccccc3C(C)C)C2)on1 [Ex 11-34, ethyl 5-((3-((2-(difluoromethoxy)-6-methylpyridin-3-yl)carbamoyl)-3-(2-isopropylphenyl)azetidin-1-yl)methyl)isoxazole-3-carboxylate]	79 nM
Cc1ccc(NC(=O)C2(c3ccccc3C(C)C)CN(CCOCC(=O)O)C2)c(OC(F)F)n1 [Ex 11-75, 2-(2-(3-((2-(difluoromethoxy)-6-methylpyridin-3-yl)carbamoyl)-3-(2-isopropylphenyl)azetidin-1-yl)ethoxy)acetic acid]	29 nM
CCOC(=O)/C=C\C(=O)N1CC(C(=O)Nc2ccc(C)nc2OC(F)F)(c2ccccc2C(C)C)C1 [Ex 12-76, ethyl (Z)-4-(3-((2-(difluoromethoxy)-6-methylpyridin-3-yl)carbamoyl)-3-(2-isopropylphenyl)azetidin-1-yl)-4-oxobut-2-enoate]	7 nM
Cc1ccc(NC(=O)C2(c3ccccc3C(C)C)CN(C[C@@H](O)CN)C2)c(OC(F)F)n1 [Ex 11-83, (S)-1-(3-amino-2-hydroxypropyl)-N-(2-(difluoromethoxy)-6-methylpyridin-3-yl)-3-(2-isopropylphenyl)azetidine-3-carboxamide]	20 nM
Cc1ccc(NC(=O)C2(c3ccccc3C(C)C)CN(C(=O)[C@@H](N)CO)C2)c(OC(F)F)n1 [Ex 12-40, 1-(L-seryl)-N-(2-(difluoromethoxy)-6-methylpyridin-3-yl)-3-(2-isopropylphenyl)azetidine-3-carboxamide]	60 nM
Cc1ccc(NC(=O)C2(c3nccnc3C(C)C)CN(S(N)(=O)=O)C2)c(OC(F)F)n1 [Ex 69, N-(2-(difluoromethoxy)-6-methylpyridin-3-yl)-3-(3-isopropylpyrazin-2-yl)-1-sulfamoylazetidine-3-carboxamide]	27 nM
Cc1ccc(NC(=O)C2(c3ccccc3C(C)C)CN(CCC3(C(=O)O)CCOC3)C2)c(OC(F)F)n1 (centres unmarked) [Ex 11-76, 3-(2-(3-((2-(difluoromethoxy)-6-methylpyridin-3-yl)carbamoyl)-3-(2-isopropylphenyl)azetidin-1-yl)ethyl)tetrahydrofuran-3-carboxylic acid]	18 nM
COc1nc(Cl)ccc1NC(=O)C1(c2ccccc2C(C)C)CNC1 [Ex 5, N-(6-chloro-2-methoxypyridin-3-yl)-3-(2-isopropylphenyl)azetidine-3-carboxamide]	594 nM
Cc1ccc(NC(=O)C2(c3ccccc3C(C)C)CN(C(=O)CC3NCCNC3=O)C2)c(OC(F)F)n1 (centres unmarked) [Ex 12-46, N-(2-(difluoromethoxy)-6-methylpyridin-3-yl)-3-(2-isopropylphenyl)-1-(2-(3-oxopiperazin-2-yl)acetyl)azetidine-3-carboxamide]	556 nM

Molecule	IC50
Cc1ccc(NC(=O)C2(c3ccccc3C3CCCCC3)CN(C(=O)CC(C)(C)C(=O)O)C2)c(OC(F)F)n1 [Ex 31-5, 4-(3-(2-cyclohexylphenyl)-3-((2-(difluoromethoxy)-6-methylpyridin-3-yl)carbamoyl)azetidin-1-yl)-2,2-dimethyl-4-oxobutanoic acid]	14 nM
Cc1ccc(NC(=O)C2(c3ccccc3C(C)C)CN(C(=O)C[C@@](C)(O)C(=O)O)C2)c(OC(F)F)n1 [Ex 12-116, (R)-4-(3-((2-(difluoromethoxy)-6-methylpyridin-3-yl)carbamoyl)-3-(2-isopropylphenyl)azetidin-1-yl)-2-hydroxy-2-methyl-4-oxobutanoic acid]	63 nM
Cc1cnc(NC(=O)C2(c3ccccc3C(C)C)CN(C(=O)CC(C)(C)C(=O)O)C2)c(OC(F)F)c1 [Ex 79-6, 4-(3-((3-(difluoromethoxy)-5-methylpyridin-2-yl)carbamoyl)-3-(2-isopropylphenyl)azetidin-1-yl)-2,2-dimethyl-4-oxobutanoic acid]	200 nM
Cc1ccc(NC(=O)C2(c3ccccc3C(C)C)CCN(C(=O)CCC(=O)C(F)(F)F)CC2)c(OC(F)F)n1 [Ex 12-12, N-(2-(difluoromethoxy)-6-methylpyridin-3-yl)-4-(2-isopropylphenyl)-1-(5,5,5-trifluoro-4-oxopentanoyl)piperidine-4-carboxamide]	7 nM
Cc1ccc(NC(=O)C2(c3ccccc3C(C)C)CN(C(=O)C[C@@H](C)C(=O)O)C2)c(OC(F)F)n1 [Ex 12-80, (R)-4-(3-((2-(difluoromethoxy)-6-methylpyridin-3-yl)carbamoyl)-3-(2-isopropylphenyl)azetidin-1-yl)-2-methyl-4-oxobutanoic acid]	18 nM
COC(=O)c1ccc(N2CC(C(=O)Nc3ccc(C)nc3OC(F)F)(c3ccccc3C(C)C)C2)nn1 [Ex 18-6, methyl 6-(3-((2-(difluoromethoxy)-6-methylpyridin-3-yl)carbamoyl)-3-(2-isopropylphenyl)azetidin-1-yl)pyridazine-3-carboxylate]	10 nM
Cc1ccc(NC(=O)C2(c3ccccc3C(C)C)CN(c3ccc(C(=O)O)nn3)C2)c(OC(F)F)n1 [Ex 18-7, 6-(3-((2-(difluoromethoxy)-6-methylpyridin-3-yl)carbamoyl)-3-(2-isopropylphenyl)azetidin-1-yl)pyridazine-3-carboxylic acid]	12 nM
Cc1ccc(NC(=O)C2(c3ccccc3C(C)C)CN(CC#N)C2)c(OC(F)F)n1 [Ex 11-88, 1-(cyanomethyl)-N-(2-(difluoromethoxy)-6-methylpyridin-3-yl)-3-(2-isopropylphenyl)azetidine-3-carboxamide]	6 nM
Cc1ccc(NC(=O)C2(c3ccccc3C(C)C)CN(C(=O)O[C@H](C)C(=O)O)C2)c(OC(F)F)n1 [Ex 14-5, (R)-2-((3-((2-(difluoromethoxy)-6-methylpyridin-3-yl)carbamoyl)-3-(2-isopropylphenyl)azetidine-1-carbonyl)oxy)propanoic acid]	9 nM
Cc1ccc(NC(=O)C2(c3ccccc3C(C)C)CN(C(=O)CN3CCC(C(=O)O)CC3)C2)c(OC(F)F)n1 [Ex 48, 1-(2-(3-((2-(difluoromethoxy)-6-methylpyridin-3-yl)carbamoyl)-3-(2-isopropylphenyl)azetidin-1-yl)-2-oxoethyl)piperidine-4-carboxylic acid]	103 nM
Cc1ccc(NC(=O)C2(c3ccccc3C(C)C)CN(c3ncc(C(=O)O)o3)C2)c(OC(F)F)n1 [Ex 18-32, 2-(3-((2-(difluoromethoxy)-6-methylpyridin-3-yl)carbamoyl)-3-(2-isopropylphenyl)azetidin-1-yl)oxazole-5-carboxylic acid]	34 nM
Cc1ccc(NC(=O)C2(c3ccccc3C(C)C)CN(Cc3cccc(C(=O)O)n3)C2)c(OC(F)F)n1 [Ex 11-46, 6-((3-((2-(difluoromethoxy)-6-methylpyridin-3-yl)carbamoyl)-3-(2-isopropylphenyl)azetidin-1-yl)methyl)picolinic acid]	17 nM
CC(C)c1ccccc1C1(C(=O)Nc2ncc(Br)cc2OC(F)F)CN(S(N)(=O)=O)C1 [Ex 81-4, N-(5-bromo-3-(difluoromethoxy)pyridin-2-yl)-3-(2-isopropylphenyl)-1-sulfamoylazetidine-3-carboxamide]	2 nM
CC(C)c1ccccc1C1(C(=O)Nc2ncc(Cl)cc2OC(F)F)CN(C(=O)NC2CC2)C1 [Ex 82-1, N3-(5-chloro-3-(difluoromethoxy)pyridin-2-yl)-N1-cyclopropyl-3-(2-isopropylphenyl)azetidine-1,3-dicarboxamide]	3 nM
COC(=O)CCCN1CC(C(=O)Nc2ccc(C)nc2OC(F)F)(c2ccccc2C(C)C)C1 [Ex 11-28, methyl 4-(3-((2-(difluoromethoxy)-6-methylpyridin-3-yl)carbamoyl)-3-(2-isopropylphenyl)azetidin-1-yl)butanoate]	12 nM
Cc1ccc(NC(=O)C2(c3ccccc3C(C)C)CN(CC(=O)O)C2)c(OC(F)F)n1 [Ex 11-12, 2-(3-((2-(difluoromethoxy)-6-methylpyridin-3-yl)carbamoyl)-3-(2-isopropylphenyl)azetidin-1-yl)acetic acid]	22 nM
